In ChEMBL document CHEMBL4385634, “Melanogenic inhibitory effects of Triangularin in B16F0 melanoma cells, in vitro and molecular docking studies” (Bioorg Med Chem, 2019):
pIC50: −log10 of the molar value.

Tests used:
Tyrosinase [1] = target: T1, Tyrosinase (Mus musculus, UniProt P11344); experiment: Inhibition of tyrosinase in mouse B16F0 cells assessed as reduction in melanin production incubated for 24 hrs by spectrophotometric analysis; format: cell-based
T1 sequence (P11344 whole entry): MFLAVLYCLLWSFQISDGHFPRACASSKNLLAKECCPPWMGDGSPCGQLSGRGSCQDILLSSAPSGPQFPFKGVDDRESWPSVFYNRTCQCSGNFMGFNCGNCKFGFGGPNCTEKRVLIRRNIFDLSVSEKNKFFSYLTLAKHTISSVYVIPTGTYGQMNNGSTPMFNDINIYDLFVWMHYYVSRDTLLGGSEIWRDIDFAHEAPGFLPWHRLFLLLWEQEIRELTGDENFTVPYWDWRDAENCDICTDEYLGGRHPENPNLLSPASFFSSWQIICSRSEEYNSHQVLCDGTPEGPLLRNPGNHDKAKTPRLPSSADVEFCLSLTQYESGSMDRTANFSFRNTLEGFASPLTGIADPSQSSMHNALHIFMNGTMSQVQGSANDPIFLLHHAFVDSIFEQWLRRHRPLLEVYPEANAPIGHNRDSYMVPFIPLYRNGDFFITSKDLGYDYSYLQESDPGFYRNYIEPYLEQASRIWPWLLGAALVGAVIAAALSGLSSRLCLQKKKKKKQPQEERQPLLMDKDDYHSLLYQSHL

[2] = target: T2, Tyrosinase (Mus musculus) (UniProt P11344); experiment: Inhibition of intracellular tyrosinase in mouse B16F0 cells using L-DOPA as substrate preincubated with compound followed by substrate addition and measured after 20 mins by UV-Visible spectrophotometric analysis relative to control; format: cell-based
T2 sequence (whole entry): T1 sequence (P11344 whole entry)

[3] = target: T2, Tyrosinase (Mus musculus); experiment: Potency index, ratio of IC50 for KA to IC50 for test compound for inhibition of tyrosinase in mouse B16F0 cells using L-DOPA as substrate by UV-Visible spectrophotometric analysis; format: cell-based
[4] = target: T2, Tyrosinase (Mus musculus); experiment: Inhibition of intracellular tyrosinase in mouse B16F0 cells at 25 uM using L-DOPA as substrate preincubated with compound followed by substrate addition and measured after 20 mins by UV-Visible spectrophotometric analysis relative to control; format: cell-based
Tyrosinase [5] = target: T1, Tyrosinase
Description: Inhibition of tyrosinase in mouse B16F0 cells using L-DOPA as substrate by UV-Visible spectrophotometric analysis

[6] = target: T2, Tyrosinase (Mus musculus); experiment: Inhibition of intracellular tyrosinase in mouse B16F0 cells at 10 uM using L-DOPA as substrate preincubated with compound followed by substrate addition and measured after 20 mins by UV-Visible spectrophotometric analysis relative to control; format: cell-based
[7] = target: T2, Tyrosinase (Mus musculus); experiment: Potency index, ratio of IC50 for KA to IC50 for test compound for inhibition of tyrosinase in mouse B16F0 cells assessed as reduction in melanin production incubated for 24 hrs by spectrophotometric analysis; format: cell-based
[8] = target: T2, Tyrosinase (Mus musculus); experiment: Potency index, ratio of compound effect to KA effect for inhibition of tyrosinase in mouse B16F0 cells at 10 uM using L-DOPA as substrate; format: cell-based
[9] = target: T2, Tyrosinase (Mus musculus); experiment: Inhibition of intracellular tyrosinase in mouse B16F0 cells at 1 uM using L-DOPA as substrate preincubated with compound followed by substrate addition and measured after 20 mins by UV-Visible spectrophotometric analysis relative to control; format: cell-based
[10] = target: T2, Tyrosinase (Mus musculus); experiment: Potency index, ratio of compound effect to KA effect for inhibition of intracellular tyrosinase in mouse B16F0 cells using L-DOPA as substrate preincubated with compound followed by substrate addition and measured after 20 mins by UV-Visible spectrophotometric analysis; format: cell-based
[11] = target: T2, Tyrosinase (Mus musculus); experiment: Inhibition of intracellular tyrosinase in mouse B16F0 cells at 5 uM using L-DOPA as substrate preincubated with compound followed by substrate addition and measured after 20 mins by UV-Visible spectrophotometric analysis relative to control; format: cell-based
Tyrosinase [12] = target: T3, Tyrosinase (Agaricus bisporus, UniProt O42713); experiment: Inhibition of mushroom tyrosinase diphenolase activity using L-dopa as substrate preincubated for 10 mins followed by substrate addition by UV-Visible spectrophotometric analysis
T3 sequence (O42713 whole entry): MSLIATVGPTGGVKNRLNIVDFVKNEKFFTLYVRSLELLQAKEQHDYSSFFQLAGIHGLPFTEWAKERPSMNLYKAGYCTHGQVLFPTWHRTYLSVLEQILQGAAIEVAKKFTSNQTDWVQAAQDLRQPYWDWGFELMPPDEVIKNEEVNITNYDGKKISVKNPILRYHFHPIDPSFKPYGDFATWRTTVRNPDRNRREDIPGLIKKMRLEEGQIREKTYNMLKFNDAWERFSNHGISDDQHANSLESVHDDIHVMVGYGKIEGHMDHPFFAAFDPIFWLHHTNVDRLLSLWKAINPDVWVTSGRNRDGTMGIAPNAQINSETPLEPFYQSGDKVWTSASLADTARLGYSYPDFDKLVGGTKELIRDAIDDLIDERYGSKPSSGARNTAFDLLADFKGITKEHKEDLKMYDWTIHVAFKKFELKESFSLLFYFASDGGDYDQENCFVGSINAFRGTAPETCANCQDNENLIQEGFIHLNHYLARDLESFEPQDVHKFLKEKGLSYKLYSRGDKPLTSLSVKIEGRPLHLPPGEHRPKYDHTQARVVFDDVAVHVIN

[13] = target: T4, Tyrosinase (Agaricus bisporus) (UniProt O42713); experiment: Potency index, ratio of IC50 for KA to IC50 for test compound for inhibition of mushroom tyrosinase diphenolase activity using L-dopa as substrate preincubated for 10 mins followed by substrate addition by UV-Visible spectrophotometric analysis
T4 sequence (whole entry): T3 sequence (O42713 whole entry)

[14] = target: T2, Tyrosinase (Mus musculus); experiment: Inhibition of intracellular tyrosinase in mouse B16F0 cells at 50 uM using L-DOPA as substrate preincubated with compound followed by substrate addition and measured after 20 mins by UV-Visible spectrophotometric analysis relative to control; format: cell-based
[15] = target: T2, Tyrosinase (Mus musculus); experiment: Inhibition of intracellular tyrosinase in mouse B16F0 cells at 100 uM using L-DOPA as substrate preincubated with compound followed by substrate addition and measured after 20 mins by UV-Visible spectrophotometric analysis relative to control; format: cell-based
B16-F0 = experiment: (§1) Cytotoxicity against mouse B16F0 cells incubated for 24 hrs by MTT assay; format: cell-based; conditions: b16-f0, 24 h
[16] = as §1; format: cell-based, B16-F0; conditions: B16F0 cells, read-out: MNCC

COc1cc(O)c(C(=O)/C=C/c2ccccc2)c(O)c1C
pIC50 (Tyrosinase [1]): 4.60
inhibition [2]: Dose-dependent effect
Ratio [3]: 3
inhibition [4]: 13%
pIC50 (Tyrosinase [5]): 4.52
inhibition [6]: 7.8%
Ratio IC50 [7]: 8
Ratio [8]: 6
inhibition [9]: 3.9%
Ratio [10]: 5
inhibition [11]: 6.1%
pIC50 (Tyrosinase [12]): 4.20
Ratio IC50 [13]: 2
inhibition [14]: 16.2%
inhibition [15]: 20.1%
Activity (B16-F0): Dose-dependent effect
MNTC at 24 h [16]: 100 µM
